One test has as its target T1, ICE (IL-1β protease) (Homo sapiens, UniProt P29466).
T1 sequence (P29466 120-297 limits assumed): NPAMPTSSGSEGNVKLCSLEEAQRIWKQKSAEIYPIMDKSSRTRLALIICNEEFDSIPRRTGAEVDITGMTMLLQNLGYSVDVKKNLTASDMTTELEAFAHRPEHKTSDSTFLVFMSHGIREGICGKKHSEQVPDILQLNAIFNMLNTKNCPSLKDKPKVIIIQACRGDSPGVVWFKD
T1 sequence (P29466 317-404 limits assumed): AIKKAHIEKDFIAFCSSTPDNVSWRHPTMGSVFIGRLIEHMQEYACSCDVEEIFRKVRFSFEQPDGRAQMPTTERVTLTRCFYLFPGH
Put plainly: enzyme assay, second order rates of inactivation of ICE. The format is biochemical. The note with it: in vitro; read-out: kobs/[I] (IL-1β protease inhibition, second order rate of inactivation). An excerpt:
Second order rates of inactivation were obtained by using the enzyme assay described in Dolle, R. E.; et al., J. Med Chem. (1994), 37, 563. […] In the case of these reversible inhibitors, the in vitro assay was modified to obtain the reversible Ki * as follows: […]

Test [1] has as its system mature IL-1β release from human monocytes. Put plainly: human monocyte pulse chase assay, inhibition of release of mature IL-1β (called In Vivo Assay). The format is cell-based. The conditions noted are these: human monocytes stimulated with fixed S. aureus. How it is done: In vivo inhibition (IC50) was determined as follows:
Human monocytes were isolated from heparinized leukopheresis units obtained through Biological Specialty Corporation (Lansdale, Pa.). Monocytes were purified by Ficoll-Hupaque (Pharmacia Fine Chemicals, Piscataway, N.J.) gradient centrifugation and more than 95% pure monocyte populations obtained by centrifugal elutriation. The assay was performed on duplicate samples of freshly isolated human monocytes, cultured in suspension at 37° C. and rotated gently in conical bottom polypropylene tubes (Sardstedt Inc., Princeton, N.J.). Human monocytes at a concentration of 5×10^6 cells/mL were resuspended in 1 mL of RPMI 1640 (a common tissue buffer from M. A. Bioproducts, Walkersville, Md.) containing 1% fetal calf serum (FCS) (HyClone, Logan, Utah) and 50 μg/mL gentamycin (Gibco, Grand Island, N.Y.). The cells were treated either with a compound of the invention (i.e. test compound) or with a non-inhibitor (control compound, typically 0.03% DMSO) for 15 minutes and then activated with 0.01% fixed Staphylococcus aureus (The Enzyme Center, Malden, Mass.) for 1 hour. The cells were then centrifuged and resuspended in 1 mL of cysteine, methionine-free RPMI media containing 1% dialyzed FCS (Hyclone). The cells were pretreated with a test compound or control compound for 15 minutes after which 0.01% fixed S. aureus plus 100 μCi Tran 35-S label (ICN, Irvine, Calif.) was added and the cells incubated at 37° C. for 1 hour. After incubation, cells were centrifuged, washed once in phosphate buffer saline and resuspended in 1 mL RPMI containing 1% fetal calf serum. The cells were again pretreated with a test or control compound for 15 minutes and then 0.01% S. aureus for 2 hours. At the end of the incubation, cells were centrifuged and supernates saved for immunoprecipitation. Cells were washed once in phosphate buffer saline and then lysed in RIPA, a continuous cell media buffer containing 2 mM phenylmethylsulfonyl fluoride, 10 mM iodoacetate, 1 μg/mL pepstatin A, 1 μg/mL leupeptin and 0.5 TIU aprotinin.
For the immunoprecipitations, an equal volume of 1% dry milk in RIPA buffer plus 50 μL of resuspended protein A sepharose CL-4B (Pharmacia, Piscataway, N.Y.) was added to supernates and 1 mL of 4% dry milk containing protein A sepharose CL-4B to cell lysates and samples rotated for 30 minutes at 4° C. Beads were then centrifuged down, samples transferred to fresh tubes and incubated overnight with 40 μg rabbit anti-human IL-1β polyclonal antibody (Genzyme, Cambridge, Mass.). The IL-1β proteins were then precipitated with 70 μL protein A sepharose, resuspended in 60 μL SDS sample buffer and run on 15% SGD-PAGE gels. Autoradiography was performed on dried gels and the amount of radioactivity (counts per minute, cpm) quantitated using a Betascope 603 analyzer.
In the monocyte pulse chase assay, each test parameter was run in duplicate. Data was collected from the Beta Scope using a personal computer, then transferred to the VAX system for calculation of mean cpm and standard deviation of the mean. When test compounds were evaluated, the percent inhibition of release of mature IL-1β was calculated as follows:
100×[1-(cells treated with stimuli+test compound-unstimulated cells)/(cells treated with stimuli+control compound-unstimulated cells)]
These % inhibition values were then used to calculate IC50 value for each compound. Since the human monocyte pulse chase assay uses primary cells from different donors, each test compound was run in 2-3 separate experiments, using monocytes from 2-3 different donors.

For orientation: IC50 means the concentration that inhibits the measured activity by half. High values mean lower potency, low ones higher potency.

Take `O=C(O)C[C@H](NC(=O)[C@@H]1CCCN2CCC[C@H](NC(=O)OCc3ccccc3)C(=O)N12)C(=O)COC(=O)c1c(Cl)cccc1Cl` [Example 23]: the kinact/KI at ICE (IL-1β protease) was > 10000 M⁻¹ s⁻¹. Also, the 50% inhibitory concentration (IC50) in test [1] is < 10 µM.
For the compound `CCOC(=O)n1nnc2cc(C(=O)N[C@H]3CCC(=O)N4CCC[C@@H](C(=O)N[C@@H](CC(=O)O)C(=O)COC(=O)c5c(Cl)cccc5Cl)N4C3=O)ccc21` [Example 18, [9-(N-Carboethoxy-5-bentriazoylamino)octahydro-6,10-dioxo-6H-pyridazino[1,2 a][1,2]diazepine-1-formoyl]-L-aspartic acid 2,6-dichlorobenzoyloxymethyl ketone], the kinact/KI on ICE (IL-1β protease) was > 10000 M⁻¹ s⁻¹. Besides, the 50% inhibitory concentration (IC50) in test [1] was < 10 µM.
For the compound `Cc1nccn1Cc1ccc(C(=O)N[C@H]2CCC(=O)N3CCC[C@@H](C(=O)N[C@@H](CC(=O)O)C(=O)COC(=O)c4c(Cl)cccc4Cl)N3C2=O)cc1` [Example 15, [9-(4-(N-(2-Methyl)imidazolylmethyl)benzoylamino)octahydro-6,10-dioxo-6H-pyridazino[1,2a][1,2]diazepine-1-formoyl]-L-aspartic acid 2,6-dichlorobenzoyloxymethyl ketone], the kinact/KI on ICE (IL-1β protease) was > 10000 M⁻¹ s⁻¹. The IC50 in test [1] is < 10 µM.
In the case of `O=C(O)C[C@H](NC(=O)[C@@H]1CCCN2C(=O)CC[C@H](NC(=O)c3ccccc3)C(=O)N12)C(=O)COc1cc(C(F)(F)F)nn1-c1ccc(Cl)cc1` [Example 7], the kinact/KI at ICE (IL-1β protease) is > 10000 M⁻¹ s⁻¹. Also, in test [1], the IC50 was < 10 µM.
Taken in the same sequence, the figures for `O=C(O)C[C@H](NC(=O)[C@@H]1CCCN2C(=O)CC[C@H](NC(=O)c3ccc(CN4CCOCC4)cc3)C(=O)N12)C(=O)COC(=O)c1c(Cl)cccc1Cl` [Example 13, [9-(4-(N-Morpholinomethyl)benzoylamino)octahydro-6,10-dioxo-6H-pyridazino[1 ,2a][1,2]diazepine-1-formoyl]-L-aspartic acid 2,6-dichlorobenzoyloxymethyl ketone] were > 10000 M⁻¹ s⁻¹ and < 10 µM.
On to `O=C(O)CSc1ccc(C(=O)N[C@H]2CCC(=O)N3CCC[C@@H](C(=O)N[C@@H](CC(=O)O)C(=O)COc4cc(C(F)(F)F)nn4-c4ccc(Cl)cc4)N3C2=O)cc1` [Example 8], for which, on ICE (IL-1β protease), the kinact/KI was > 10000 M⁻¹ s⁻¹. In test [1], the IC50 is < 10 µM.
Taken in the same sequence, the figures for `CCOC(=O)n1cnc2cc(C(=O)N[C@H]3CCC(=O)N4CCC[C@@H](C(=O)N[C@@H](CC(=O)O)C(=O)COC(=O)c5c(Cl)cccc5Cl)N4C3=O)ccc21` [Example 19, [9-(N-Carboethoxy-5-benzimidazoylamino)octahydro-6,10-dioxo-6H-pyridazino[1 ,2a][1,2]diazepine-1-formoyl]-L-aspartic acid 2,6-dichlorobenzoyloxymethyl ketone] were > 10000 M⁻¹ s⁻¹ and < 10 µM.
The matching figures for `CN(C)Cc1ccc(C(=O)N[C@H]2CCC(=O)N3CCC[C@@H](C(=O)N[C@@H](CC(=O)O)C(=O)COc4cc(C(F)(F)F)nn4-c4ccccn4)N3C2=O)cc1` [Example 25]: > 10000 M⁻¹ s⁻¹ and < 10 µM.
The matching figures for `O=C(O)C[C@H](NC(=O)[C@@H]1CCCN2C(=O)CC[C@H](NC(=O)OCc3ccccc3)C(=O)N12)C(=O)COc1cc(C(F)(F)F)nn1-c1ccccn1` [Example 6]: > 10000 M⁻¹ s⁻¹ and < 10 µM.
As for `CC(C)COC(=O)N[C@H]1CCC(=O)N2CCC[C@@H](C(=O)N[C@@H](CC(=O)O)C(=O)COc3cc(C(F)(F)F)nn3-c3ccc(Cl)cc3)N2C1=O` [Example 10], the kinact/KI at ICE (IL-1β protease) was > 10000 M⁻¹ s⁻¹. The IC50 in test [1] was < 10 µM.
Taken in the same sequence, the figures for `O=C(O)C[C@H](NC(=O)[C@@H]1CCCN2C(=O)CC[C@H](NC(=O)OCc3ccccc3)C(=O)N12)C(=O)COc1cc(C(F)(F)F)nn1-c1ccc(Cl)cc1` [Example 5] were > 10000 M⁻¹ s⁻¹ and < 10 µM.
For `CN1CCN(Cc2ccc(C(=O)N[C@H]3CCC(=O)N4CCC[C@@H](C(=O)N[C@@H](CC(=O)O)C(=O)COC(=O)c5c(Cl)cccc5Cl)N4C3=O)cc2)CC1` [Example 14, [9-(N-[4-(N-Methylpiperazino)methyl]benzoylamino)octahydro-6,10-dioxo-6H-pyridazino [1,2a][1,2]diazepine-1-formoyl]-L-aspartic acid 2,6-dichlorobenzoyloxymethyl ketone], the kinact/KI on ICE (IL-1β protease) is > 10000 M⁻¹ s⁻¹. The IC50 in test [1] is < 10 µM.
Take `O=C(O)C[C@H](NC(=O)[C@@H]1CCCN2C(=O)CC[C@H](NC(=O)OCc3ccccc3)C(=O)N12)C(=O)COc1cc(C(F)(F)F)nn1-c1ccc(Cl)cn1` [Example 24]: the kinact/KI at ICE (IL-1β protease) was > 10000 M⁻¹ s⁻¹. Further, the IC50 in test [1] is < 10 µM.
Consider `O=C(O)CCCc1ccc(C(=O)N[C@H]2CCC(=O)N3CCC[C@@H](C(=O)N[C@@H](CC(=O)O)C(=O)COc4cc(C(F)(F)F)nn4-c4ccc(Cl)cc4)N3C2=O)cc1` [Example 20], for which the kinact/KI at ICE (IL-1β protease) was > 10000 M⁻¹ s⁻¹. In test [1], the IC50 is < 10 µM.
As for `O=C(O)CCc1ccc(C(=O)N[C@H]2CCC(=O)N3CCC[C@@H](C(=O)N[C@@H](CC(=O)O)C(=O)COc4cc(C(F)(F)F)nn4-c4ccc(Cl)cc4)N3C2=O)cc1` [Example 12], the kinact/KI on ICE (IL-1β protease) was > 10000 M⁻¹ s⁻¹. Moreover, in test [1], the IC50 was < 10 µM.
Taken in the same sequence, the figures for `O=C(O)C[C@H](NC(=O)[C@@H]1CCCN2C(=O)CC[C@H](NC(=O)c3ccc4[nH]cnc4c3)C(=O)N12)C(=O)COC(=O)c1c(Cl)cccc1Cl` [Example 16, [9-(5-Benzimidazoylamino)octahydro-6,10-dioxo-6H-pyridazino[1,2a][1,2]diazepine-1-formoyl]-L-aspartic acid 2,6-dichlorobenzoyloxymethyl ketone] were > 10000 M⁻¹ s⁻¹ and < 10 µM.
The matching figures for `O=C(O)C[C@H](NC(=O)[C@@H]1CCCN2C(=O)CC[C@H](NC(=O)c3ccc4[nH]nnc4c3)C(=O)N12)C(=O)COC(=O)c1c(Cl)cccc1Cl` [Example 17, [9-(5-Bentriazoylamino)octahydro-6,10-dioxo-6H-pyridazino[1,2a][1,2]diazepine-1-formoyl]-L-aspartic acid 2,6-dichlorobenzoyloxymethyl ketone]: > 10000 M⁻¹ s⁻¹ and < 10 µM.
Turning to `CN(C)Cc1ccc(C(=O)N[C@H]2CCC(=O)N3CCC[C@@H](C(=O)N[C@@H](CC(=O)O)C(=O)COc4cc(C(F)(F)F)nn4-c4ccc(Cl)cc4)N3C2=O)cc1` [Example 1], at ICE (IL-1β protease), the kinact/KI was > 10000 M⁻¹ s⁻¹. For the same compound, the IC50 in test [1] was < 10 µM.
The matching figures for `O=C(O)C[C@H](NC(=O)[C@@H]1CCCN2C(=O)CC[C@H](NC(=O)OCc3ccccc3)C(=O)N12)C(=O)COc1cc(C(F)(F)F)nn1-c1ccccc1` [Example 4]: > 10000 M⁻¹ s⁻¹ and < 10 µM.
The matching figures for `O=C(O)CCSc1ccc(C(=O)N[C@H]2CCC(=O)N3CCC[C@@H](C(=O)N[C@@H](CC(=O)O)C(=O)COc4cc(C(F)(F)F)nn4-c4ccc(Cl)cc4)N3C2=O)cc1` [Example 9]: > 10000 M⁻¹ s⁻¹ and < 10 µM.
The matching figures for `CN(C)Cc1ccc(C(=O)N[C@H]2CCC(=O)N3CCC[C@@H](C(=O)N[C@@H](CC(=O)O)C(=O)COC(=O)c4c(Cl)cccc4Cl)N3C2=O)cc1` [Example 11]: > 10000 M⁻¹ s⁻¹ and < 10 µM.
`O=C(O)C[C@H](NC(=O)[C@@H]1CCCN2C(=O)CC[C@H](NC(=O)OCc3ccccc3)C(=O)N12)C(=O)COC(=O)c1c(Cl)cccc1Cl` [Example 3]: the kinact/KI at ICE (IL-1β protease) is > 10000 M⁻¹ s⁻¹. In addition, in test [1], the IC50 was < 10 µM.

The record behind these values is patent publication US5639745A, “Fused-bicyclic lactams as interleukin-1β converting enzyme inhibitors” (Sanofi, priority 1995, dated 1997).
